Assay results as given in patent publication US20250313574A1, “SIALIC ACID DERIVATIVES AND METHODS OF USING SAME” (EISAI R&D MANAGEMENT CO., LTD., priority 2022, published 2025).

Key:
[1] = target: Recombinant human CD33 protein (Homo sapiens (Human), UniProt P20138); assay: CD33 competitive binding assay for HTS drug screen (fluorescent multivalent sialic acid probe)
Summary of the method: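 Recombinant human CD33, coated overnight at 4° C from 10 μg/ml in pH 5.5 acetate, was preincubated briefly with compound. It was then exposed to a multivalent neutravidin/FITC/sialic acid analog A-375 probe (final 5 μM neutravidin, 15 μM A-375, 5 μM FITC) for 30 min at room temperature. After washing, bound FITC fluorescence was read.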

[2] = target: Recombinant Human Siglec-3/CD33 protein (His-CD33) (Homo sapiens (Human), UniProt P20138); assay: Differential scanning fluorimetry (DSF) thermal shift assay; type: binding
Chain of Recombinant Human Siglec-3/CD33 protein (His-CD33) (P20138 18-259): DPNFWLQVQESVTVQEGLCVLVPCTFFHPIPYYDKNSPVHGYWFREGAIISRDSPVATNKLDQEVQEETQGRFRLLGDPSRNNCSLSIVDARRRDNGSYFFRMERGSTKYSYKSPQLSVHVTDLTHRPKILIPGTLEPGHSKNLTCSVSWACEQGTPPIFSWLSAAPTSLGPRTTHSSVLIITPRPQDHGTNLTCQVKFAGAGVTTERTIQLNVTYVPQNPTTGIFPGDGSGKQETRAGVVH

[3] = difference in thermal melt of CD33 protein (0.5 μM) with 50 μM compound
[4] = thermal melt shift of 0.5 μM CD33 protein with 50 μM compound

Chain of Recombinant human CD33 protein (P20138 18-259): as above

EC50 [1]	DSF (dTmD) [2, 3]	DSF (dTmD) [2, 4]	SMILES
55 nM	9.3 °C		CC(=O)NC1[C@H]([C@H](O)[C@H](O)CNC(=O)c2cc(C)c(O)c(C)c2)O[C@@](CC(=O)N2CCOC[C@]23CCN(C(=O)OC(C)(C)C)C3)(C(=O)O)C[C@@H]1O (some centres unmarked) [A-220]
2170 nM	5.1 °C		CC(=O)N[C@H]1[C@H]([C@H](O)[C@H](O)CNC(=O)c2cc(C)c(O)c(C)c2)O[C@@](C/C=C/c2cccc(CNC(=O)C3CCC[C@H](Nc4ncccn4)C3)c2)(C(=O)O)C[C@@H]1O (some centres unmarked) [A-256]
552 nM	6.4 °C		CC(=O)N[C@H]1[C@H]([C@H](O)[C@H](O)CNC(=O)c2cc(C)c(O)c(C)c2)O[C@@](C[C@@H]2COC[C@]3(CCN(C(=O)OC(C)(C)C)C3)N2)(C(=O)O)C[C@@H]1O [A-225]
4720 nM		6.2	CC(=O)N[C@H]1[C@H]([C@H](O)[C@H](O)CNC(=O)c2cccc(SC(F)(F)F)c2)O[C@@](CCN2CCOC[C@@]23CCN(C(=O)OC(C)(C)C)C3)(C(=O)O)C[C@@H]1O [A-169]
12 nM	14.6 °C		CC(=O)N[C@H]1[C@H]([C@H](O)[C@H](O)CNC(=O)c2cc(C)c(O)c(C)c2)O[C@@](C[C@H]2COC[C@@]3(CCN(C(=O)OC(C)(C)C)C3)N2)(C(=O)O)C[C@@H]1O [A-227]
7790 nM	3.0 °C		CC(=O)N[C@H]1[C@H]([C@H](O)[C@H](O)CNC(=O)c2cc(Cl)c(O)c(Cl)c2)O[C@@](CC2OC(C)(C)O[C@@H]2c2cccc(C(=O)NCc3ccccc3)c2)(C(=O)O)C[C@@H]1O (some centres unmarked) [A-322]
680 nM		8.0	CC(=O)N[C@H]1[C@H]([C@H](O)[C@H](O)CNC(=O)c2cc(C)oc2C(F)(F)F)O[C@@](CCN2CCOC[C@@]23CCN(C(=O)OC(C)(C)C)C3)(C(=O)O)C[C@@H]1O [A-160]
510 nM		7.4	CC(=O)N[C@H]1[C@H]([C@H](O)[C@H](O)CNC(=O)c2ccc(O)c(NC=O)c2)O[C@@](CCN2CCOC[C@@]23CCN(C(=O)OC(C)(C)C)C3)(C(=O)O)C[C@@H]1O [A-152]
601 nM	6.4 °C		Cc1cc2cc(C)c1OCCCOC[C@H](NC(=O)C1CCCOC1)COC/C=C/C[C@]1(C(=O)O)C[C@H](O)[C@@H](NC(=O)Cn3cc(C4CCCCC4)nn3)[C@@H](O1)[C@H](O)[C@H](O)CNC2=O (some centres unmarked) [A-335]
6030 nM	1.9 °C		Cc1cc(C(=O)NC[C@@H](O)[C@@H](O)[C@@H]2O[C@@](C/C=C/c3cccc(CNC(=O)c4cccc(Cl)c4)c3)(C(=O)O)C[C@H](O)[C@H]2NC(=O)Cn2cc(C3CCCCC3)nn2)cc(C)c1O [A-262]
2080 nM		4.5	CC(=O)N[C@H]1[C@H]([C@H](O)[C@H](O)CNC(=O)c2cc(C)on2)O[C@@](CCN2CCOC[C@@]23CCN(C(=O)OC(C)(C)C)C3)(C(=O)O)C[C@@H]1O [A-188]
65 nM		11.2	CC(=O)N[C@H]1[C@H]([C@H](O)[C@H](O)CNC(=O)c2cc(C)c(O)c(C)c2)O[C@@](CCN2CCOC[C@@]23CCN(C(=O)C2CCCC2)C3)(C(=O)O)C[C@@H]1O [A-060]
45400 nM	1.5 °C		CC(=O)N[C@H]1[C@H]2O[C@](C(=O)O)(CCCCOC[C@@H](NC(=O)C3CCCOC3)COCCOc3c(C)cc(cc3C)C(=O)NC[C@@H](O)[C@H]2O)C[C@@H]1O (some centres unmarked) [A-342]
2000 nM		6.1	CC(=O)N[C@H]1[C@H]([C@H](O)[C@H](O)CNC(=O)c2cc(C)c(O)c(C)c2)O[C@@](CCN2CCOCC2(C)CNC(=O)OC(C)(C)C)(C(=O)O)C[C@@H]1O (some centres unmarked) [A-009]
413 nM		7.4	C=C[C@@H]1CN(C(=O)OC(C)(C)C)C[C@]1(C)NCC[C@]1(C(=O)O)C[C@H](O)[C@@H](NC(C)=O)[C@H]([C@H](O)[C@H](O)CNC(=O)c2cc(C)c(O)c(C)c2)O1 [A-035]
2340 nM		5.6	CC(=O)N[C@H]1[C@H]([C@H](O)[C@H](O)CNC(=O)c2cc(C)c(O)c(C)c2)O[C@@](CCN2CCOC[C@@]23CCN(C(=O)C2(C)COC2)C3)(C(=O)O)C[C@@H]1O [A-100]
353 nM	8.5 °C		CC(=O)N[C@H]1[C@H]([C@H](O)[C@H](O)CNC(=O)c2cc(C)c(O)c(C)c2)O[C@@](C/C=C/c2cccc(CNC(=O)C3CCC(Nc4cnccn4)CC3)c2)(C(=O)O)C[C@@H]1O (some centres unmarked) [A-247]
31 nM		12.0	CC(=O)N[C@H]1[C@H]([C@H](O)[C@H](O)CNC(=O)c2cc(C)c(O)c(C)c2)O[C@@](CCN2CCOC[C@@]23CCN(C(=O)C2CCCCC2(F)F)C3)(C(=O)O)C[C@@H]1O (some centres unmarked) [A-070]
18000 nM	1.52 °C		Cc1cc2cc(C)c1OCCCNC(=O)CCCCCCC[C@]1(C(=O)O)C[C@H](O)[C@@H](NC(=O)Cn3cc(C4CCCCC4)nn3)[C@@H](O1)[C@H](O)[C@H](O)CNC2=O [A-344]

EC50 [1]	DSF (dTmD) [2, 3]	DSF (dTmD) [2, 4]	SMILES
4190 nM	3.6 °C		CC(=O)N[C@H]1[C@H]2O[C@](C(=O)O)(C/C=C/COC[C@@H](NC(=O)[C@@H]3CCCOC3)COCCCOc3c(C)cc(cc3C)C(=O)NC[C@@H](O)[C@H]2O)C[C@@H]1O [A-336]
22 nM		12.9	CC(=O)N[C@H]1[C@H]([C@H](O)[C@H](O)CNC(=O)c2cc(C)c(O)c(C)c2)O[C@@](CCN2CCOC[C@@]23CCN(C(=O)N[C@H](C)c2ccccc2)C3)(C(=O)O)C[C@@H]1O [A-047]
9790 nM	4.3 °C		CC(=O)N[C@H]1[C@H]([C@H](O)[C@H](O)CNC(=O)c2cc(C)c(O)c(C)c2)O[C@@](C/C=C/c2cccc(CNC(=O)c3cccc(NC(C)(C)C)c3)c2)(C(=O)O)C[C@@H]1O [A-251]
960 nM	4.8 °C		CC(=O)N[C@H]1[C@H]([C@H](O)[C@H](O)CNC(=O)c2cc(C)c(O)c(C)c2)O[C@@](CC2OC(C)(C)O[C@@H]2c2ccc(C)c(N3CCCC3=O)c2)(C(=O)O)C[C@@H]1O (some centres unmarked) [A-320]
610 nM		9.6	CC(=O)N[C@H]1[C@H]([C@H](O)[C@H](O)CNC(=O)c2ccc(C)c(C(F)(F)F)c2)O[C@@](CCN2CCOC[C@@]23CCN(C(=O)OC(C)(C)C)C3)(C(=O)O)C[C@@H]1O [A-145]
50 nM		11.2	CC(=O)N[C@H]1[C@H]([C@H](O)[C@H](O)CNC(=O)c2cnc3[nH]ncc3c2)O[C@@](CCN2CCOC[C@@]23CCN(C(=O)OC(C)(C)C)C3)(C(=O)O)C[C@@H]1O [A-126]
1410 nM	5.2 °C		CC(=O)N[C@H]1[C@H]([C@H](O)[C@H](O)CNC(=O)c2cc(C)c(O)c(C)c2)O[C@@](C[C@H]2COCC3(CCN(C(=O)OC(C)(C)C)CC3)N2)(C(=O)O)C[C@@H]1O [A-231]
22 nM	13.0 °C		CC(=O)N[C@H]1[C@H]([C@H](O)[C@H](O)CNC(=O)c2cc(C)c(O)c(C)c2)O[C@@](C[C@@H]2COC[C@]3(CCN(C(=O)OC(C)(C)C)C3)N2)(C(=O)O)C[C@@H]1O [A-229]
7 nM		14.1	CC(=O)N[C@H]1[C@H]([C@H](O)[C@H](O)CNC(=O)c2cc(C)c(O)c(C)c2)O[C@@](CCN2C[C@H](C)OC[C@@]23CCN(C(=O)OC(C)(C)C)C3)(C(=O)O)C[C@@H]1O [A-005]
4300 nM	2.9 °C		CC(=O)N[C@H]1[C@H]([C@H](O)[C@H](O)CNC(=O)c2cc(C)c(O)c(C)c2)O[C@@](C/C=C/c2cccc(-c3cc(N)on3)c2)(C(=O)O)C[C@@H]1O [A-291]
9730 nM		2.1	CC(=O)N[C@H]1[C@H]([C@H](O)[C@H](O)CNC(=O)c2cc(C)c(O)c(C)c2)O[C@@](CCN2CCCC[C@@]23CN(C(=O)OC(C)(C)C)C[C@H]3CO)(C(=O)O)C[C@@H]1O [A-029]
2300 nM	5.4 °C		Cc1cc(C(=O)NC[C@@H](O)[C@@H](O)[C@@H]2O[C@@](OC3CCCCC3NC(=O)Cn3cc(CNC(=O)c4ccccn4)nn3)(C(=O)O)C[C@H](O)[C@H]2NC(=O)Cn2cc(C3CCCCC3)nn2)cc(C)c1O (some centres unmarked) [A-332]
159 nM	4.5 °C		CC(=O)N[C@H]1[C@H]([C@H](O)[C@H](O)CNC(=O)c2cc(C)c(O)c(C)c2)O[C@@](CC2OC(C)(C)O[C@@H]2c2cccc(C(=O)NCc3ccccc3)c2)(C(=O)O)C[C@@H]1O (some centres unmarked) [A-312]
51 nM		12.4	CC(=O)N[C@H]1[C@H]([C@H](O)[C@H](O)CNC(=O)c2ccc(F)c(Br)c2)O[C@@](CCN2CCOC[C@@]23CCN(C(=O)OC(C)(C)C)C3)(C(=O)O)C[C@@H]1O [A-132]
235 nM		7.5	CC(=O)N[C@H]1[C@H]([C@H](O)[C@H](O)CNC(=O)c2cc(C)c(O)c(C)c2)O[C@@](CCN2CCOC[C@@]23CCN(C(=O)N(C)C(C)C)C3)(C(=O)O)C[C@@H]1O [A-061]
3750 nM	5.0 °C		COC(=O)[C@@]1(CCN2CCOC[C@@]23CCN(C(=O)OC(C)(C)C)C3)CCC[C@H](C[C@H](O)CNC(=O)c2cc(C)c3[nH]ccc3c2)O1 [A-207]
15000 nM	−0.1 °C		CC(=O)N[C@H]1[C@H]([C@H](O)[C@H](O)CNC(=O)c2cc(C)c(O)c(C)c2)O[C@@](CCN2CCOC[C@@]23CCN(C(=O)OC(C)(C)C)C3)(C(=O)NS(=O)(=O)c2ccccc2)C[C@@H]1O [A-368]
830 nM		9.2	CC(=O)N[C@H]1[C@H]([C@H](O)[C@H](O)CNC(=O)c2cc(C)c(O)c(C)c2)O[C@@](CCNC2(C)CCN(C(=O)OC(C)(C)C)C2)(C(=O)O)C[C@@H]1O (some centres unmarked) [A-026]
